According to patent US20040023295A1, “Methods and systems for analyzing complex biological systems” (priority 2001, published 2004):
Entries after “also recorded” stand apart in the source; their conditions may differ.

Experiments:
Arabidopsis thaliana [1] = assay: Biochemical (metabolite) profiling by LC-MS and GC-MS of sprayed Arabidopsis (MOA1); conditions: for stress related (commonly regulated) metabolites: within one hour after spraying
[2] = system: Arabidopsis thaliana plants; assay: Phenotypic analysis of herbicide-treated Arabidopsis plants (SOA1); format: in vivo; conditions: for characteristic symptoms (morphological phenotype): herbicide-treated Arabidopsis; for Dev. leafWidth: numeric values standardized to the average response for the mock treated tissues; for Dev. leafCurling / Dev. leafTwisting / Dev. matureLeafAnthocyanins / Dev. matureLeafChlorosis / Dev. matureLeafNecrosis / Dev. newLeafAnthocyanins / Dev. newLeafChlorosis / Dev. newLeafNecrosis / Dev. pointedLeaves: standardized to mock treated; for Symptom Class: three-week-old Arabidopsis sprayed with herbicide, phenotype classes of FIG. 12; for Dev. tMic: time for full range of symptoms at MIC, coded score
Magnaporthe grisea = format: cell-based
Arabidopsis thaliana [3] = assay: Phenotypic profiling of Arabidopsis sprayed with unknown and commercial herbicides (MOA1); format: in vivo; conditions: Ward's method
Arabidopsis thaliana [4] = assay: Gene expression profiling of sprayed Arabidopsis (MOA1); format: in vivo; conditions: for No. of Lethal Genes Altered: regulated genes identified as essential genes in internal database
[5] = early time points (20 min, 1 hour)

| SMILES | tyrosine level relative to the control (Arabidopsis thaliana [1]; [5]) | characteristic symptoms (morphological phenotype) [2] | Dev. leafWidth [2] | Dev. leafCurling [2] | Dev. leafTwisting [2] | Dev. matureLeafAnthocyanins [2] | Dev. matureLeafChlorosis [2] | Dev. matureLeafNecrosis [2] | Dev. newLeafAnthocyanins [2] | Dev. newLeafChlorosis [2] | Dev. newLeafNecrosis [2] | Dev. pointedLeaves [2] | Symptom Class [2] | Dev. tMic [2] | stress related (commonly regulated) metabolites (Arabidopsis thaliana [1]) | phenotype / hierarchical clustering of the eleven phenotypic characteristics (Arabidopsis thaliana [3]) | No. of Lethal Genes Altered (Arabidopsis thaliana [4]) | further results |
| --- | --- | --- | --- | --- | --- | --- | --- | --- | --- | --- | --- | --- | --- | --- | --- | --- | --- | --- |
| O=C(O)CNCP(=O)(O)O [Glyphosate] | decreased relative to the control | anthocyanin accumulation in the older leaves accompanied by chlorosis of the newly emerging leaves | 0 | 0 | 0 | 3 | 1 | 3 | 1 | 2 | 0 | 1 | 4 | 2 |  |  |  | growth of M. grisea with ammonium or glutamine as nitrogen source (Magnaporthe grisea; 250 μg/ml): Little growth defect; growth of M. grisea with nitrate or glutamate as nitrogen source (Magnaporthe grisea; 250 μg/ml): inhibited growth; growth of M. grisea with nitrite as the sole nitrogen source (Magnaporthe grisea; 250 μg/ml): inhibited growth; growth results for Tiers 3 and 4 as compared to Unknown 4 (Magnaporthe grisea; 250 μg/ml): nearly identical; growth inhibition of M. grisea and its remediation (Magnaporthe grisea; 1.0 mg/ml): remediated by inclusion of aromatic amino acids |
| CC(C)OC(=O)Nc1cccc(Cl)c1 [Chloropropham] |  |  |  |  |  |  |  |  |  |  |  |  |  |  | neither butylate nor chlorpropham treatment resulted in many changes | neither showed a strong herbicidal phenotype |  |  |
| CCSC(=O)N(CC(C)C)CC(C)C [Butylate] |  |  |  |  |  |  |  |  |  |  |  |  |  |  | neither butylate nor chlorpropham treatment resulted in many changes | neither showed a strong herbicidal phenotype |  |  |
| CS(=O)(=O)c1cc(C(F)(F)F)ccc1C(=O)c1cnoc1C1CC1 [Isoxaflutole] | up-regulated; also recorded: began to accumulate relative to the control |  |  |  |  |  |  |  |  |  |  |  |  |  |  |  | 15 | Alpha-tocopherol level relative to the control (Arabidopsis thaliana [1]; early time points): not significantly changed; phenylalanine level relative to the control (Arabidopsis thaliana [1]; [5]): up-regulated; also recorded: began to accumulate relative to the control; alterations in the expression of genes involved in the homogentisate biosynthetic pathway (Arabidopsis thaliana [4]; MOA1, 1 hr): not observed |
| Nc1nc[nH]n1 [Amitrole] |  | leaf bleaching and leaf enlargement |  |  |  |  |  |  |  |  |  |  |  |  |  | exhibited chlorosis and not true bleaching |  |  |
| CP(=O)(O)CCC(N)C(=O)O (stereo not shown) [Glufosinate] |  | Chlorosis and leaf curling | −2 | 2 | 1 | 0 | 3 | 0 | 0 | 3 | 0 | 1 | 3 | 1 | Only a few, if any |  | 10 | Regulated Genes: Down (Arabidopsis thaliana [4]; 1 hr, p < 0.5, arrays containing 22,000 Arabidopsis genes): 54 |
